Marks after values point to notes of the source that are not given here.
Columns and labels:
[1] = system: xylene-induced ear swelling in mice; test: Anti-inflammatory activity: xylene-induced ear swelling; assay type: in vivo; conditions: n = 8
Protocol: 144 healthy mice were randomly divided into 3 groups, a baicalin group, a baicalin magnesium group and a control group. Each group was divided into six subgroups each having 8 mice according to time points (1 h, 3 h, 5 h, 7 h, 11 h and 15 h). Mice in the baicalin group were orally administrated (ig administration) at a dose of 100 mg·kg-1; mice in the baicalin magnesium group were orally administrated (ig administration) at a dose equivalent to 100 mg·kg-1 of baicalin; and mice in the control group were administrated with the same volume of normal saline. At 40 minutes before each time point, 100 μl of xylene was dropped in left ears of the mice in each group; when at a time point, the animals were sacrificed. Auricles of both ears of the mice were obtained with a puncher, and the difference in weight (swelling degree) between the left ear and the right ear was used as an indication of the anti-inflammatory effect of the drug.

[2] = system: Human liver cancer HepG2 cells; test: Anti-tumor activity: apoptosis of HepG2 cells by flow cytometry; assay type: cell-based; conditions: 48 hours
Protocol: Human liver cancer HepG2 cells were prepared and then cultured in an incubator containing 5% of CO2 at 37° C. using a DMEN culture medium containing 10% of fetal bovine serum, penicillin (100 μmol·L^−1) and streptomycin (1 mg·mL^−1). HepG2 cells in logarithmic phase were diluted with RPMI-1640 culture medium containing 10% of fetal bovine serum to a concentration of 1×10^4 per mL; then inoculated into a 96-well plate at 100 μL per well; and then cultured in an incubator having a relative humidity of 90% and 5% of CO2 at 37° C. The culture medium was discarded after the HepG2 cells were cultured for 24 hours. The culture medium containing baicalin and baicalin magnesium (equivalent to the concentration of baicalin (5 μg/mL, 10 μg/mL and 20 μg/mL)) were added in wells respectively with each concentration in four parallel wells. And at the same time, wells having culture medium without cells were used as a blank control group, and wells having cells without drug were used as a negative control group. The groups were continuously cultured for 48 hours to collect the cells. The cells were washed with PBS solution 2 times, and detected with a flow cytometer by FACS for parameter acquisition and data analysis.

[3] = system: streptozotocin-induced diabetes rats (high-fat diet); test: Antidiabetic effect: blood glucose in streptozotocin-induced diabetes; assay type: in vivo, SD male rats; conditions: 80 mg/kg baicalin or equivalent intragastric daily
Protocol: Healthy SD male rats aged 6 to 8 weeks were randomly divided into 4 groups, a high-fat diet control group, a diabetes control group, a baicalin treatment group and a baicalin magnesium treatment group. The rats were raised for 1 week in advance. In the second week, all rats were fed with high-fat diet. After six weeks, the rats were fasted but with water for 12 hours. For the diabetes control group, the baicalin treatment group and the baicalin magnesium treatment group, rats were administrated by tail vein injection with 45 mg/kg of streptozotocin prepared from citrate buffer solution (pH=4.5). After 3 to 7 days, the fasting blood glucose was measured. The blood glucose level greater than 13 mmol/L was a criterion for the successful diabetes rate model. The rats in the high-fat diet control group were administrated by tail vein injection with the citrate buffer solution. After the model was built, the rats were intragastrically administrated in the morning every day. The rats in the baicalin group were administrated with baicalin at a dose of 80 mg/kg; the rates in the […] were administrated with baicalin magnesium at a dose equivalent to 80 mg/kg of baicalin; and the rats in the diabetes model group and the high-fat diet control group were intragastrically administrated the same volume of solvent once every day and for successive 6 weeks. After the molding and the administration, the blood glucose was measured in the third week and the sixth week. Single-factor variance analysis was performed on data by SPSS19.0 statistical software, and P<0.05 was of statistical significance.

[4] = Pharmacokinetic experiments (no data given); assay type: in vivo; conditions: in words only
[5] = 1 h after oral 100 mg/kg baicalin or equivalent
[6] = 3 h after oral 100 mg/kg baicalin or equivalent
[7] = 5 h after oral 100 mg/kg baicalin or equivalent
[8] = 7 h after oral 100 mg/kg baicalin or equivalent
[9] = 11 h after oral 100 mg/kg baicalin or equivalent
[10] = 15 h after oral 100 mg/kg baicalin or equivalent
[11] = HepG2, 5 μg/mL (baicalin equivalent)
[12] = HepG2, 10 μg/mL (baicalin equivalent)
[13] = HepG2, 20 μg/mL (baicalin equivalent)
[14] = 0 (after the molding, start of administration)

SMILES | Ear swelling degree (difference in weight left vs right ear) [1, 5] | Ear swelling degree (difference in weight left vs right ear) [1, 6] [mg] | Ear swelling degree (difference in weight left vs right ear) [1, 7] [mg] | Ear swelling degree (difference in weight left vs right ear) [1, 8] [mg] | Ear swelling degree (difference in weight left vs right ear) [1, 9] | Ear swelling degree (difference in weight left vs right ear) [1, 10] | Apoptosis % [2, 11] [%] | Apoptosis % [2, 12] [%] | Apoptosis % [2, 13] | Blood Glucose [3, 14] [mmol/L] | Blood Glucose ([3]; 3 weeks) | Blood Glucose ([3]; 6 weeks) | Adsorption rate compared to baicalin [4]
O=C(O)[C@H]1O[C@@H](Oc2cc3oc(-c4ccccc4)cc(=O)c3c(O)c2O)[C@H](O)[C@@H](O)[C@@H]1O [Baicalin] | 7.57 ± 3.05 mg | 4.66 ± 2.76 | 4.88 ± 1.99 | 6.77 ± 2.54 | 7.89 ± 2.98 mg | 9.12 ± 1.98 mg | 9.57 ± 0.56 | 21.45 ± 1.67 | 30.67 ± 3.45 % | 23.54 ± 2.5 | 21.45 ± 2.6 mmol/L | 20.14 ± 2.6 mmol/L | –
O=C(O)C1O[C@@H](Oc2cc3oc(-c4ccccc4)cc(=O)c3c(O)c2O)C(O)[C@@H](O)[C@@H]1O (stereo partly shown) [Baicalin Magnesium, baicalin magnesium] | 5.87 ± 2.05*^Δ mg | 4.57 ± 3.56 | 4.63 ± 2.78 | 5.87 ± 3.43 | 6.77 ± 3.75*^Δ mg | 7.97 ± 2.85^Δ mg | 11.67 ± 0.65 | 23.67 ± 5.21 | 33.12 ± 1.58*^Δ % | 22.32 ± 2.23 | 19.46 ± 3.59*^Δ# mmol/L | 17.58 ± 2.6*^Δ# mmol/L | faster adsorption rate

From US10196417B2, “Baicalin magnesium compound and its preparation method and application” (CHENGDE MEDICAL UNIVERSITY, priority 2016, dated 2019)
